ChEMBL document CHEMBL1154288, “The discovery and unique pharmacological profile of RO4938581 and RO4882224 as potent and selective GABAA alpha5 inverse agonists for the treatment of cognitive dysfunction” (Bioorg Med Chem Lett, 2009)

Columns and labels:
[1] = biological target: T1, GABA-A receptor; alpha-5/beta-3/gamma-2 (Homo sapiens, UniProt P18507+P28472+P31644); assay: Displacement of [3H]Flumazenil from cloned human GABA alpha-5-beta-3-gamma-2 receptor expressed in HEK293 cells; type: cell-based
T1 sequence (P18507 whole entry): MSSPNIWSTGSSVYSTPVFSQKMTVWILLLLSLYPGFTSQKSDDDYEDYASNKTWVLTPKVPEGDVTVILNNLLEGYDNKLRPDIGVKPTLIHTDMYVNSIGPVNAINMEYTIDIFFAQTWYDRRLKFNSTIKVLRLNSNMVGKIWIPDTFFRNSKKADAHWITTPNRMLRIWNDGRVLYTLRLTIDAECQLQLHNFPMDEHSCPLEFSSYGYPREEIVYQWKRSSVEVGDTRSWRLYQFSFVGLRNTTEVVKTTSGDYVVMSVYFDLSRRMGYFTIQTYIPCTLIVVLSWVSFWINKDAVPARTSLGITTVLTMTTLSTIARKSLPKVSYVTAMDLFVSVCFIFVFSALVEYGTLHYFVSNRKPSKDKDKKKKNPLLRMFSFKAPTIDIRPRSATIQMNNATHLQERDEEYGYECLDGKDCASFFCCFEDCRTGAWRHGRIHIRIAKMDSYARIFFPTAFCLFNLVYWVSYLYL
T1 sequence (P28472 whole entry): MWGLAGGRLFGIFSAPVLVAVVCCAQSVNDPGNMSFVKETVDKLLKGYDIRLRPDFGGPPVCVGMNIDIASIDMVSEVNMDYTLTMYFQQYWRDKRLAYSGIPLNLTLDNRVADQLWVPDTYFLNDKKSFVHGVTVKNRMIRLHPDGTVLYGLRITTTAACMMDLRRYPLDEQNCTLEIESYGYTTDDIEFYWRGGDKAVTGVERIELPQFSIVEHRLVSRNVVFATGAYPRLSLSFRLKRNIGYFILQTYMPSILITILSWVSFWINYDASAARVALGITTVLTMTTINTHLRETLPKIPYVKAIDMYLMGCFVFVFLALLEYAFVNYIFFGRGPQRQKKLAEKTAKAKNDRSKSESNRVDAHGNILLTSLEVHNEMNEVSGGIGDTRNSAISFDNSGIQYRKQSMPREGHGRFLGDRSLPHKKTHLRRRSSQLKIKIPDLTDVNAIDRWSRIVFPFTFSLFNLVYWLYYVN
T1 sequence (P31644 whole entry): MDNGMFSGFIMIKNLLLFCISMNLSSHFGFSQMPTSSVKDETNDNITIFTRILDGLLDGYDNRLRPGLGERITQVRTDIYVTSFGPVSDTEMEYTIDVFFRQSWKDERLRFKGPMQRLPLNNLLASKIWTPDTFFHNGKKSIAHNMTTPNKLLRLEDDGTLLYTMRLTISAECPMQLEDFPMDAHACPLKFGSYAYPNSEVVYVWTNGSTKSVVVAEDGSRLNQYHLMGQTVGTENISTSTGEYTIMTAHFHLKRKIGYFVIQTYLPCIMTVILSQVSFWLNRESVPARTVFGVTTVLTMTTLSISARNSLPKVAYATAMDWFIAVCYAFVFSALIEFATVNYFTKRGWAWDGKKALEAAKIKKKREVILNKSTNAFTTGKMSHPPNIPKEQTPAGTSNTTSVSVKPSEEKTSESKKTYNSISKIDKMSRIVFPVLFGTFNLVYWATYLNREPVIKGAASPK

HEK293 [2] = assay: Selectivity ratio of Ki for cloned human GABA alpha-1-beta-3-gamma-2 receptor expressed in HEK293 cells to Ki for cloned human GABA alpha-5-beta-3-gamma-2 receptor expressed in HEK293 cells; type: cell-based
HEK293 [3] = assay: Selectivity ratio of Ki for cloned human GABA alpha-3-beta-3-gamma-2 receptor expressed in HEK293 cells to Ki for cloned human GABA alpha-5-beta-3-gamma-2 receptor expressed in HEK293 cells; type: cell-based
[4] = biological target: GABA-A receptor; alpha-5/beta-3/gamma-2 (Homo sapiens) (UniProt P18507+P28472+P31644); assay: Inverse agonist activity at human GABA alpha-5-beta-3-gamma-2 receptor expressed in Xenopus laevis oocyts by electrophysiology assay relative to GABA; type: functional
HEK293 [5] = assay: Selectivity ratio of Ki for cloned human GABA alpha-2-beta-3-gamma-2 receptor expressed in HEK293 cells to Ki for cloned human GABA alpha-5-beta-3-gamma-2 receptor expressed in HEK293 cells; type: cell-based
[6] = biological target: GABA A receptor alpha-5/beta-3/gamma-2 (Rattus norvegicus) (UniProt P18508+P19969+P63079); assay: Inverse agonist activity at rat GABA alpha-5-beta-3-gamma-2 receptor expressed in HEK293 cells by electrophysiology assay relative to GABA; type: functional, cell-based

Row | Structure (SMILES) | Ki [1] [nM] | Ratio Ki (HEK293 [2]) | Ratio Ki (HEK293 [3]) | Efficacy [4] [%] | Ratio Ki (HEK293 [5]) | Efficacy [6] [%]
1 | O=C(Nc1ccc2c(c1)-c1ncnn1Cc1c(Cl)ncn1-2)C1CC1 | 16 | 2 | 5 | -48 | 6 | –
2 | CC(=O)Nc1ccc2c(c1)-c1ncnn1Cc1c(Cl)ncn1-2 | 2.9 | 14 | 10 | – | 19 | -34
3 | Clc1ncn2c1Cn1ncnc1-c1cc(-c3ccccc3)ccc1-2 | 6.3 | 4 | 8 | – | 5 | 8
4 | Cc1cccc(-c2ncn3c2Cn2ncnc2-c2cc(Cl)ccc2-3)n1 | 31 | 11 | 8 | – | 11 | -12
5 | Cc1ncn2c1Cn1ncnc1-c1c(Cl)cccc1-2 | 1.2 | 0.6 | 1 | -45 | 2 | –
6 | Cc1ncn2c1Cn1ncnc1-c1cc(I)ccc1-2 | 4.4 | 42 | 29 | -57 | 60 | –
7 | N#Cc1ccc2c(c1)-c1ncnn1Cc1c(Cl)ncn1-2 | 2.4 | 15 | 5 | – | 16 | -27
8 | Cc1ncn2c1Cn1ncnc1-c1ccccc1-2 | 2.6 | 16 | 4 | – | 6 | -44
9 | Clc1ccc2c(c1)-c1ncnn1Cc1c(C3CC3)ncn1-2 | 9.4 | 6 | 5 | – | 7 | -21
10 | Cc1ncn2c1Cn1ncnc1-c1cc(OC(F)(F)F)ccc1-2 | 50 | 10 | 24 | – | 29 | -41
11 | Clc1ncn2c1Cn1ncnc1-c1ccccc1-2 | 0.3 | 13 | 2 | – | 5 | -41
12 | Cc1ncn2c1Cn1ncnc1-c1cc(OC(F)F)ccc1-2 | 1.8 | 58 | 33 | -43 | 53 | –
13 | Clc1ncn2c1Cn1ncnc1-c1cc(-n3ccnc3)ccc1-2 | 13 | 1 | 1 | – | 2 | -7
14 | CCC(F)(F)c1ncn2c1Cn1ncnc1-c1cc(F)ccc1-2 | 3.2 | 5 | 2 | – | 3 | -27
15 | Cc1ncn2c1Cn1ncnc1-c1c(F)cccc1-2 | 1 | 5 | 6 | -42 | 13 | –
16 | Cc1ncn2c1Cn1ncnc1-c1cc(C(F)(F)F)ccc1-2 | 18 | 29 | 29 | -32 | 78 | –
17 | FC(F)c1ccc2c(c1)-c1ncnn1Cc1c(Cl)ncn1-2 | 1.1 | 19 | 15 | – | 36 | -42
18 | COc1ccc2c(c1)-c1ncnn1Cc1c(C)ncn1-2 | 7.7 | 11 | 18 | -45 | 31 | –
19 | Cc1nc(-c2ncn3c2Cn2ncnc2-c2cc(F)ccc2-3)no1 | 0.2 | 3 | 3 | – | 5 | -12
20 | CS(=O)(=O)Nc1ccc2c(c1)-c1ncnn1Cc1c(Cl)ncn1-2 | 54 | 7 | 5 | -36 | 5 | –
21 | Cc1ncn2c1Cn1ncnc1-c1cccc(F)c1-2 | 64 | 12 | 5 | -50 | 12 | –
22 | Clc1ncn2c1Cn1ncnc1-c1cc(NC3CC3)ccc1-2 | 2.2 | 10 | 36 | – | 43 | -37
23 | Cc1ccc2c(c1)-c1ncnn1Cc1c(C)ncn1-2 | 9.2 | 11 | 23 | -37 | 34 | –
24 | Cc1ccc2c(c1)-c1ncnn1Cc1c(Cl)ncn1-2 | 1.8 | 11 | 12 | – | 23 | -37
25 | CCCc1ncn2c1Cn1ncnc1-c1cc(Cl)ccc1-2 | 1.6 | 3 | 3 | – | 5 | -35
26 | CCS(=O)(=O)c1ncn2c1Cn1ncnc1-c1cc(Cl)ccc1-2 | 215 | 4 | 4 | – | > 15 | -23
27 | C#CCNC(=O)c1ncn2c1Cn1ncnc1-c1cc(F)ccc1-2 | 68 | 4 | 1 | – | 1 | -35
28 | Clc1ncn2c1Cn1ncnc1-c1cc(C3CC3)ccc1-2 | 1.2 | 23 | 16 | – | 15 | -47
29 | Cc1ncn2c1Cn1ncnc1-c1cc(F)ccc1-2 | 3 | 6 | 4 | – | 3 | -38
